# Test results: ChEMBL document CHEMBL1201862, “PubChem BioAssay data set” (2004)
# Active and inactive are the calls of the source.
# Assays:
# [1] = target: T1, Sentrin-specific protease 7 (Homo sapiens, UniProt Q9BQF6); assay: SENP7 protease inhibitors, SAR follow-up, biochemical, luminescence (AID 504497); format: functional
# T1 sequence (Q9BQF6 whole entry): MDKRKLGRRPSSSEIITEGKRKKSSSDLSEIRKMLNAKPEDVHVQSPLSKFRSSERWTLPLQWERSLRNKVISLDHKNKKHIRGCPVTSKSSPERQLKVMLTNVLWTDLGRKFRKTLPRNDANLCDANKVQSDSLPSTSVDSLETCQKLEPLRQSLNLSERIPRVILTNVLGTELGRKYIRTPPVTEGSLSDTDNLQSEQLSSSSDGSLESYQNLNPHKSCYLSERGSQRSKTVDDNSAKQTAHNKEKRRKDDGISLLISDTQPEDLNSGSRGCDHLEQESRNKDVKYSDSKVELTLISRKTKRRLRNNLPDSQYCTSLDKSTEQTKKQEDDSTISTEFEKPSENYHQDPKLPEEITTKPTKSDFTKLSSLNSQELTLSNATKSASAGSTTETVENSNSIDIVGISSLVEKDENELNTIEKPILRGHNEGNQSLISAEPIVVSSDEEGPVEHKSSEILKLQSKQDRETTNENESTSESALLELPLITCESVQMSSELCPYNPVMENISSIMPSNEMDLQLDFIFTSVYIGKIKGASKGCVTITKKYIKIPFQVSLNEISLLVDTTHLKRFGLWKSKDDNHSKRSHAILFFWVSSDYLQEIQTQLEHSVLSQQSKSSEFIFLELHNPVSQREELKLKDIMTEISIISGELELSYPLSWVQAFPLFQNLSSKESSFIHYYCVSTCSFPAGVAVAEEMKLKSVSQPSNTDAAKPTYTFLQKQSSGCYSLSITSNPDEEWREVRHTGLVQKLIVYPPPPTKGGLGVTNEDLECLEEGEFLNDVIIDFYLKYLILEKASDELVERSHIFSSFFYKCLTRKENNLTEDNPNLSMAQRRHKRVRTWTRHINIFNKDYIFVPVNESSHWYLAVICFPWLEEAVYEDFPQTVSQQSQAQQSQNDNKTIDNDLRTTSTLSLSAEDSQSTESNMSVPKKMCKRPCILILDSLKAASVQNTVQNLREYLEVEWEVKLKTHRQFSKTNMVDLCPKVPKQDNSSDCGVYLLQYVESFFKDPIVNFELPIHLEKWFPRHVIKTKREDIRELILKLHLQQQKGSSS
# [2] = target: T2, Sentrin-specific protease 8 (Homo sapiens, UniProt Q96LD8); format: functional
# T2 sequence (Q96LD8 whole entry): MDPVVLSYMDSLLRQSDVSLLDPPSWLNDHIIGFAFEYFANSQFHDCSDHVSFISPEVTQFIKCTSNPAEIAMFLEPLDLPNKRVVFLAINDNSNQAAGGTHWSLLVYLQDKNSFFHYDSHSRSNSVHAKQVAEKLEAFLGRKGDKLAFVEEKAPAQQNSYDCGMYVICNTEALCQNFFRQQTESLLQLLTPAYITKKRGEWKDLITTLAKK
# [3] = target: T2, Sentrin-specific protease 8; format: functional; remark: listed apart in the source
# H4 = assay: Luminescence Cell-Based Dose Response HTS to Identify Activators of 5'UTR Stem-Loop Driven Prion Protein mRNA Translation in H4 Neuroglioblastoma Cells. [Related pubchem assays: 1829 (Project Summary), 1814 (Primary HTS)]; format: functional; conditions: Homo sapiens
# [4] = Luminescence Cell-Based Dose Response HTS to Identify Activators of Luciferase Translation or Activity in H4-C Neuroglioblastoma Cells. [Related pubchem assays: 1829 (Project Summary), 1814 (Primary HTS)]; format: functional
# [5] = Luminescence Cell-Based Dose Response HTS to Identify Activators of 5'UTR Stem-Loop Driven Prion Protein mRNA Translation in H4-C Neuroglioblastoma Cells. [Related pubchem assays: 1829 (Project Summary), 1814 (Primary HTS)]; format: functional
# [6] = Luminescence Cell-Based Dose Retest to Confirm Activators of 5'UTR Stem-Loop Driven Alpha-Synuclein mRNA Translation in H4 Neuroglioblastoma Cells. [Related pubchem assays (depositor defined):AID1813, AID1829]; format: functional
# [7] = Luminescence Cell-Based Dose Response HTS to Identify Activators of Luciferase Translation or Activity in H4 […] Cells. [Related pubchem assays: 1829 (Project Summary), 1814 (Primary HTS)]; format: functional
# [8] = cytotoxicity toward NIH3T3 fibroblasts, dose response, counter-screen, cell-based, ATP luminescence, mouse fibroblasts (AID 2010); format: functional;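 further: cells exposed to compound for about 90 hours before reading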
# [9] = Luminescence Cell Based Dose Confirmation HTS to Identify Activators of 5'UTR Stem-Loop Driven Alpha-Synuclein mRNA Translation in H4 Neuroglioblastoma Cells. [Related pubchem assays (depositor defined):AID1813, AID1829]; format: functional; conditions: Homo sapiens
# [10] = target: T3, Mannose-6-phosphate isomerase (Homo sapiens, UniProt P34949); assay: inhibitors of human PMI, primary screen, biochemical, fluorescence intensity, coupled assay (AID 1209)
# T3 sequence (P34949 whole entry): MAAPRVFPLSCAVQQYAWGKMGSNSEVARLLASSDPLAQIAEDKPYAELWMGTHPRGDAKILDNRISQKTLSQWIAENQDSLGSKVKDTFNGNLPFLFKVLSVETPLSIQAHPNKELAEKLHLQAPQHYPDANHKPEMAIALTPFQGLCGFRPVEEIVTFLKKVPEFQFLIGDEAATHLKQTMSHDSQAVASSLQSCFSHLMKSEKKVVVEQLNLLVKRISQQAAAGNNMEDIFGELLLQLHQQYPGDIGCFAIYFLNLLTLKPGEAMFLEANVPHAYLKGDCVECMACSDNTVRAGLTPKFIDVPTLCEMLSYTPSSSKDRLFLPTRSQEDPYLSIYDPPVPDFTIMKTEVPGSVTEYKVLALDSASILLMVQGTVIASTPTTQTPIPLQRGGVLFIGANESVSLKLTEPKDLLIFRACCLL
# [11] = target: Small ubiquitin-related modifier 2 (Homo sapiens, UniProt P61956); assay: inhibitors of SUMO2 protein-protein interaction, dose response, selectivity assay for SUMO1 interaction inhibitor project, biochemical, FRET, human SUMO2, uHTS hits (AID 624384); format: functional; conditions: read-out: IC50_Mean
# Small ubiquitin-related modifier 2, sequence (P61956 whole entry): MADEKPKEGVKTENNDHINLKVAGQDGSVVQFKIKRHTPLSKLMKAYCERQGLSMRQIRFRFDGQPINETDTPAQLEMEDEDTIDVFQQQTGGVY
# Streptococcus = assay: Group A Streptococcus viability loss, dose response, counter-screen for streptokinase expression inhibitor project, luminescence, BacTiterGlo (AID 1915); format: functional, organism-based; conditions: Streptococcus;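 further: potency for reduction of bacterial viability or growth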
# [12] = target: Small ubiquitin-related modifier 1 (Homo sapiens, UniProt P63165); assay: inhibitors of SUMO1 peptide binding, dose response, biochemical, fluorescence polarization, uHTS hits (AID 624382); format: functional; conditions: read-out: IC50_Mean
# Small ubiquitin-related modifier 1, sequence (P63165 whole entry): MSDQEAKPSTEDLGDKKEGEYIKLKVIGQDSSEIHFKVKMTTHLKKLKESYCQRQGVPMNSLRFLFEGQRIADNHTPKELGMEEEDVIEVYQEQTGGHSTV
# Genome polyprotein = Genome polyprotein (dengue virus type 2, UniProt P29990); assay: Dengue-2 NS5 methyltransferase inhibitors, primary screen, biochemical, confirmation dose response (AID 588689); format: functional
# Genome polyprotein, sequence (P29990 2492-3391 limits assumed): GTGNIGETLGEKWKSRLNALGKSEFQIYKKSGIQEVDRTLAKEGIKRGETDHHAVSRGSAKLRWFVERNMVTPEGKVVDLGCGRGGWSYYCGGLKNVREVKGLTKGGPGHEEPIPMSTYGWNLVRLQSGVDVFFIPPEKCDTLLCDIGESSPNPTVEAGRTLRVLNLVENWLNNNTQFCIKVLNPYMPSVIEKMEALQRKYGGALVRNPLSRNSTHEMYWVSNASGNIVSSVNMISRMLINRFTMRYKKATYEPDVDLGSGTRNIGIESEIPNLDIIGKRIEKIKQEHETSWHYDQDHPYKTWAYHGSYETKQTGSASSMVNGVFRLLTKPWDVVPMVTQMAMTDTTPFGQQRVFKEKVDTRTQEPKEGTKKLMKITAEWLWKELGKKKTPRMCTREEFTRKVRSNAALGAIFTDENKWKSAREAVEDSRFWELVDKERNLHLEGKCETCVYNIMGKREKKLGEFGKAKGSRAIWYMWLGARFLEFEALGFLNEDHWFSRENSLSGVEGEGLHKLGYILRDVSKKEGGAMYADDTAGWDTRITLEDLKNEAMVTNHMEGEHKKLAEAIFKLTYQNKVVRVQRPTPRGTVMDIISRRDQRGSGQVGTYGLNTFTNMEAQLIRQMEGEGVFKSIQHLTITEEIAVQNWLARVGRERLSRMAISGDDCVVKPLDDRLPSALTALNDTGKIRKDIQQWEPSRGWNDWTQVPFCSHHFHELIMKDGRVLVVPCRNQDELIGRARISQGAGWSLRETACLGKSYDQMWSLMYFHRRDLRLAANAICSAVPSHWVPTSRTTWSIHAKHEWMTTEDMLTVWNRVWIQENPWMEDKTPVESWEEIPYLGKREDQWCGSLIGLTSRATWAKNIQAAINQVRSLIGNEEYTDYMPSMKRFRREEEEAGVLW
# [13] = test system: Streptococcus sp. 'group A'; assay: growth inhibition of control SK(-) GAS strain, dose response, counter-screen for streptokinase expression inhibitor project, luminescence, kanamycin, BacTiterGlo, confirmation (AID 1900); format: functional, organism-based; conditions: Streptococcus sp. 'group A'
compound,measurement,setting,value
COc1cc(C(=O)c2nccc3cc(OC)c(OC)cc23)c([N+](=O)[O-])cc1OC,IC50,[1],24.6 µM (active)
same,IC50,[2],14.8 µM (active)
same,IC50,[3],0.535 µM (active)
c1ccc2c(Nc3nnc(-c4ccncc4)s3)cccc2c1,EC50,H4,13.8 µM (active)
same,EC50,[4],1.06 µM (active)
same,EC50,[5],40 µM (active)
same,EC50,[6],2.04 µM (active)
same,EC50,[7],> 120 µM (not active)
same,EC50,[8],> 60 µM (not active)
same,EC50,[9],2.02 µM (active)
N=C1S/C(=C\c2ccc(-c3ccccc3C(=O)O)o2)C(=O)N1c1ccc2c(c1)OCO2,IC50,[10],11.1 µM (active)
N#Cc1c(O)nc(SCC(=O)N2c3ccccc3Sc3ccccc32)nc1-c1ccccc1,IC50,[11],23.1 µM (inactive)
same,EC50,Streptococcus,13.9 µM (active)
same,IC50,[12],21 µM (inactive)
same,IC50,Genome polyprotein,38.9 µM (active)
same,EC50,[13],5.6 µM (active)
